Test results taken from PubChem BioAssay (NCI).
Values joined by “and” are separate entries in the source; they are usually repeats but may differ in a detail not shown here. Identical values can stand only once.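 Interpolation was linear, between the two tested concentrations surrounding the appropriate level; five concentrations were tested over 48 hours in 96-well plates. GI50 = concentration required for 50% inhibition of growth. The concentration for full growth arrest is given as TGI.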

Key:
Experiment in all cases: NCI tumour cell line growth inhibition, 48 h
DMS 114 small cell lung = system: DMS 114 small cell lung
DMS 273 small cell lung = system: DMS 273 small cell lung
KM20L2 colon = system: KM20L2 colon
LXFL 529 NSCLC = system: LXFL 529 NSCLC
M19-MEL melanoma = system: M19-MEL melanoma
RXF-631 renal = system: RXF-631 renal
SNB-78 CNS = system: SNB-78 CNS
MDA-N = system: MDA-N
XF 498 CNS = system: XF 498 CNS

SMILES	TGI (DMS 114 small cell lung)	TGI (DMS 273 small cell lung)	TGI (KM20L2 colon)	TGI (LXFL 529 NSCLC)	TGI (M19-MEL melanoma)	TGI (RXF-631 renal)	TGI (SNB-78 CNS)	TGI (MDA-N)	other results
CC1(C)Oc2ccccc2[N+]([O-])=C1c1ccccc1	> 100 µM	> 100 µM	> 100 µM	> 100 µM	> 100 µM	> 100 µM	> 100 µM		
COc1cc(=O)oc(/C=C/C=C/C=C/C(C)=C\C2(C)OC(C)C(C)(O)C2O)c1C (centres undefined)								> 100 µM	
C[C@H](C(O)CC(=O)C(C)(C)O)[C@H]1CC[C@@]2(C)[C@@H]3CC[C@H]4C(C)(C)[C@@H](OC5OC(COC6OC(CO)C(O)C(O)C6O)C(O)C(O)C5O)CC[C@]4(C)C3=CC[C@]12C (some centres undefined)								> 100 µM	
N/C(=N\N=C\c1ccc(O)c(O)c1)NO	> 100 µM	> 100 µM	> 100 µM	> 100 µM	> 100 µM	> 100 µM	> 100 µM		TGI (XF 498 CNS): > 100 µM
CCC(C)(C)NS(=O)(=O)c1ccccc1	> 100 µM	> 100 µM	> 100 µM	> 100 µM	> 100 µM		> 100 µM		TGI (XF 498 CNS): > 100 µM
CCOC(=O)NC(=O)c1cn(C2OC(COC(=O)CCCCCCCCC(=O)OCC3OC(n4cc(C(=O)NC(=O)OCC)c(=O)[nH]c4=O)C4OC(C)(C)OC34)C3OC(C)(C)OC32)c(=O)[nH]c1=O (centres undefined)	> 100 µM	> 100 µM	> 100 µM	> 100 µM	86.2 µM	> 100 µM	> 100 µM		TGI (XF 498 CNS): > 100 µM
COc1ccc(C[C@H]2NC[C@H](O)[C@H]2OC(C)=O)cc1								0.195 µM	
N.N.NCCCCCN.O=C([O-])CC(=O)[O-].O=C([O-])CC(=O)[O-].[Pt+4].[Pt+4]			> 100 µM	> 100 µM					GI50 (KM20L2 colon): > 100 µM; GI50 (LXFL 529 NSCLC): > 100 µM
CCCCCN(CCCCC)C(=O)[C@H](CCC(=O)OCc1ccccc1)NC(=O)c1cc2ccccc2[nH]1	> 100 µM	> 100 µM	> 100 µM	> 100 µM		> 100 µM	> 100 µM		
Cc1ccc(-c2cc(=O)c3cc(C)c(C)c(C(=O)O)c3o2)cc1[N+](=O)[O-]	> 100 µM	> 100 µM	> 100 µM	> 100 µM	> 100 µM		> 100 µM		
COc1c(Cl)[c]([Hg][O]C(C)=O)c(NCC(C)=O)c(OC)[c]1[Hg][O]C(C)=O	26.9 µM		> 100 µM	3.68 µM	30.1 µM	3.88 µM	43.2 µM		GI50 (DMS 114 small cell lung): 4.12 µM; GI50 (KM20L2 colon): 28.3 µM; GI50 (LXFL 529 NSCLC): 1.06 µM; GI50 (M19-MEL melanoma): 14.8 µM; GI50 (RXF-631 renal): 1.22 µM; GI50 (SNB-78 CNS): 15.9 µM
Clc1ccc(COC(Cn2ccnc2)c2ccc(Cl)cc2Cl)c(Cl)c1 (centres undefined)								17.5 µM and 15.6 µM	
C/C=C(\C)C(=O)N1c2ccccc2CC1c1c(C)[nH]c2ccccc12 (centres undefined)		> 100 µM	> 100 µM	> 100 µM	> 100 µM	> 100 µM	> 100 µM		
CC(C)C1NC(=O)[C@H](C)OC(=O)[C@@H](C(C)C)NC(=O)[C@@H](C)OC(=O)C(C(C)C)NC(=O)[C@H](C)OC1=O (some centres undefined)	> 100 µM	> 100 µM	> 100 µM	> 100 µM	> 100 µM		> 100 µM		TGI (XF 498 CNS): > 100 µM
Clc1nc(-c2ccccc2)nc(Cl)c1Cl								26.6 µM	
CC1(C)OC2COC(c3[nH]nc4c(=O)[nH]c(=O)[nH]c34)C2O1 (centres undefined)								> 100 µM	
Nc1nc(CC2(O)CCCCC2)cc(-c2ccccc2)n1	> 70.6 µM	> 66 µM	> 53.7 µM	> 100 µM	> 72.8 µM	> 100 µM	> 100 µM		
O=C(O)CNC(=O)C1NC(C(F)(F)F)(C(F)(F)F)OC1(C(F)(F)F)C(F)(F)F (centres undefined)								> 100 µM	
O=C(COC(=O)c1cccc2c(=O)c3ccccc3[nH]c12)Nc1ccc(S(=O)(=O)Nc2ncccn2)cc1	> 100 µM	> 100 µM	> 100 µM	> 100 µM	> 100 µM	> 100 µM	74.4 µM		TGI (XF 498 CNS): > 100 µM
O=C(CC1SC(=Nc2ccccc2Cl)NC1=O)Nc1ccc(Cl)cc1 (centres undefined)	> 100 µM	> 100 µM	> 100 µM	> 100 µM	> 100 µM		> 100 µM		
COc1cc2ccc3c4cc(OC)c(OC(C)C)cc4c[n+](C)c3c2cc1OC	41.4 µM		> 100 µM	> 100 µM	> 100 µM				
COc1ccc(/C=C2\CCc3ccccc3C2=O)cc1OC	47.1 µM		> 100 µM	> 100 µM	> 100 µM		> 100 µM		TGI (XF 498 CNS): 56.5 µM
[N-]=[N+]=NC1C2CC3CC(C2)CC1C3 (centres undefined)	> 100 µM	> 100 µM	> 100 µM	> 100 µM	> 100 µM	> 100 µM	> 100 µM		
S=C1SCN(C2CCCCCCCCCCC2)CN1C1CCCCCCCCCCC1								> 100 µM	
COc1ccc2c(c1OC)C(C=C(c1ccccc1)c1ccccc1)CN(C)C2 (centres undefined)	29.3 µM	34.9 µM	35.5 µM	34.7 µM	81 µM	66.4 µM	> 100 µM		
